The target in assay [1] is T1, human progesterone receptor A (Homo sapiens, UniProt P06401).
T1 construct: expressed in transfected cells; host or cells: SK-N-MC human neuroblastoma cells, stably transfected
T1 sequence (P06401 1-769 isoform P06401-2): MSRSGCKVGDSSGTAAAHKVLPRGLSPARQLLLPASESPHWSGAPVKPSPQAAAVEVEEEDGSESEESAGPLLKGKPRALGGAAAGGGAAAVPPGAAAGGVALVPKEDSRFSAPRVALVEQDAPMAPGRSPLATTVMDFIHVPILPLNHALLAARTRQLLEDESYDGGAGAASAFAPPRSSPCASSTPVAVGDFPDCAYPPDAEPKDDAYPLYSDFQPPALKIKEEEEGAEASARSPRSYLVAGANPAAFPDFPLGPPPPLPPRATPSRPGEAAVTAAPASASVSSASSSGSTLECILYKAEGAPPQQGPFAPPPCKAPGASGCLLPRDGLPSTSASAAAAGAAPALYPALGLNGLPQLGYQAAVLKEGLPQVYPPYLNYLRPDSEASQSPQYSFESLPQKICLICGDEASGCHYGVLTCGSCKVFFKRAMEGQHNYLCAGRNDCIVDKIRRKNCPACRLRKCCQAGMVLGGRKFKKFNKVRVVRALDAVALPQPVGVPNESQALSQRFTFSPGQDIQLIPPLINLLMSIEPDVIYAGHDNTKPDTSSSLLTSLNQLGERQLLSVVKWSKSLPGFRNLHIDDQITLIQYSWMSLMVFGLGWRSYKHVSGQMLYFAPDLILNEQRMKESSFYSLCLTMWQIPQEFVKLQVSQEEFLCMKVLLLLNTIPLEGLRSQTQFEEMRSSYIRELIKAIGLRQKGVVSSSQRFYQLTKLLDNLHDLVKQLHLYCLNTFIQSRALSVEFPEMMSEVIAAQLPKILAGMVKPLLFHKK
As to the kind of experiment: Progesterone receptor-antagonistic action in stably transfected SK-N-MC cells, MTV-LUC reporter (PR-A). Type of assay: cell-based. The conditions noted are these: for Progesterone receptor A (PR-A) Efficacy: antagonistic efficacy vs 0.1 nmol/l promegestone; for IC50: antagonism of 0.1 nmol/l promegestone, 24 hours, LUC reporter, read-out: Progesterone receptor A (PR-A) Potency IC50. As for the experimental part:
(§1) EXAMPLE 16 PROGESTERONE RECEPTOR-ANTAGONISTIC ACTION IN STABLE TRANSFECTANTS OF HUMAN NEUROBLASTOMA CELLS (SK-N-MC CELLS) WITH THE HUMAN PROGESTERONE A OR PROGESTERONE B RECEPTOR AND AN MTV-LUC REPORTER CONSTRUCT
(§2) SK-N-MC cells (human neuroblastoma cells), which have been stably transfected with plasmids, which express the human progesterone receptor B (pRChPR-B-neo) or the human progesterone receptor A (pRChPR-A-neo) and a reporter construct (pMMTV-LUC), were incubated for 24 hours either in the absence (negative control) or in the presence of increasing amounts of the respective test compound (0.01 nmol/l, 0.1 nmol/l 1 nmol/l, 10 nmol/l, 100 nmol/l and 1 μmol/l), in order to determine the agonistic efficacy. As positive control of reporter gene induction, the cells were treated with the synthetic gestagen promegestone (0.01 nmol/l, 0.1 nmol/l, 1 nmol/l, 10 nmol/l, 100 nmol/l and 1 μmol/l). For determination of the antagonistic activity, the cells were treated with 0.1 nmol/1 promegestone and additionally with increasing amounts of the respective test compound (0.01 nmol/l, 0.1 nmol/l, 1 nmol/l, 10 nmol/l, 100 nmol/l and 1 μmol/l). The activity of the LUC reporter gene (LUC=luciferase) was determined in the cell lysates and was measured as RLU (relative light units). All measured values are given as percentage efficacy and as EC50 or IC50 concentrations.
(§3) 11β-(4-Acetylphenyl)-20,20,21,21,21-pentafluoro-17-hydroxy-19-nor-17α-pregna-4,9-dien-3-one and 20,20,21,21,21-pentafluoro-17-hydroxy-11β-[4-(hydroxyacetyl)phenyl]-19-nor-17α-pregna-4,9-dien-3-one, very potent and therefore preferred examples from WO98/34947 and WO2008/058767, were tested as comparative compounds along with the test compound.

Assay [2] addresses T2, human progesterone receptor B (Homo sapiens, UniProt P06401).
T2 construct: expressed in transfected cells; host or cells: SK-N-MC human neuroblastoma cells, stably transfected
T2 sequence (P06401 1-933): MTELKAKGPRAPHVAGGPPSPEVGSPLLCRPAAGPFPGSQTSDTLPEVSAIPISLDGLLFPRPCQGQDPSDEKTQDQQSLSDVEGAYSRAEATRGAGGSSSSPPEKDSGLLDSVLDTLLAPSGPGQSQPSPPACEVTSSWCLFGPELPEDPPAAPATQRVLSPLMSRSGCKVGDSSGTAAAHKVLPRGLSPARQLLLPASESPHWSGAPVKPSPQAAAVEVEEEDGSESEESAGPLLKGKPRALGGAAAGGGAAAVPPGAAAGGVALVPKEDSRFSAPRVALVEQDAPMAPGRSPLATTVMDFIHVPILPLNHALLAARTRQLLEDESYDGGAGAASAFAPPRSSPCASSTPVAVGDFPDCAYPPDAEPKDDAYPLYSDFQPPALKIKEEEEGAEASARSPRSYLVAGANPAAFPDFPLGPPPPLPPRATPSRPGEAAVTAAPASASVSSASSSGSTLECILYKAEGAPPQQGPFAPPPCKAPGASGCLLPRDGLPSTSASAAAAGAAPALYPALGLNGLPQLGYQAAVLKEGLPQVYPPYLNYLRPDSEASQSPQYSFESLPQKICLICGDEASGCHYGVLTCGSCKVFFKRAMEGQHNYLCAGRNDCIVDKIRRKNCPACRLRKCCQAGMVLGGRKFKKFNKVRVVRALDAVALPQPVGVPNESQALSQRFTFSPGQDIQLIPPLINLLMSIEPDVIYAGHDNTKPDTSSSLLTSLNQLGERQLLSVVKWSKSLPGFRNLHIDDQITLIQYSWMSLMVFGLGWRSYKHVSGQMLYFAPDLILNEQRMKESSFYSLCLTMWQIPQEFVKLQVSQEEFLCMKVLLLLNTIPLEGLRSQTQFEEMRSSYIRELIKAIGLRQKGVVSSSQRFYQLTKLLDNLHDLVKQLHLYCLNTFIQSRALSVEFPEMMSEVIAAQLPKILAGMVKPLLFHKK
As to the kind of experiment: Progesterone receptor-antagonistic action in stably transfected SK-N-MC cells, MTV-LUC reporter (PR-B). Format: cell-based. To be noted: for Progesterone receptor B (PR-B) Efficacy: antagonistic efficacy vs 0.1 nmol/l promegestone; for IC50: antagonism of 0.1 nmol/l promegestone, 24 hours, LUC reporter, read-out: Progesterone receptor B (PR-B) Potency IC50. As for the experimental part:
as §1, §2, §3

Another assay relates to pregnant rats. As to the kind of experiment: Abortion test on female rats (termination of early pregnancy). Type of assay: in vivo, rat. The conditions noted are these: d5-d7 p.c., autopsy d9 p.c. As for the experimental part:
EXAMPLE 17 ABORTION TEST ON FEMALE RATS
The action of progesterone and of the progesterone receptor is a fundamental precondition for successful pregnancy or gestation in mammals. The progesterone-antagonistic action of the compounds according to the invention was tested on pregnant rats (6 rats per group) on day 5 to 7 post coitum with conventional housing and feeding conditions.
After successful hand mating, the pregnant animals (presence of sperm in the vaginal smear on day 1 of pregnancy=d1 p.c.) were randomized and divided into the treatment group and the control group. The animals then each received subcutaneously or orally 0.15; 0.5; 1.5 or 5 mg/kg of the test compound or 1.0 ml/kg of vehicle (benzyl benzoate/castor oil: 1+4 [v/v]) daily from day 5 to day 7 (d5-d7 p.c.).
Autopsy was carried out on day 9 (d9 p.c.). As a characteristic of progesterone receptor antagonistic action, the uterus was examined for the presence of nidation sites. Complete absence, or also the presence of pathological, haemorrhagic or otherwise abnormal nidation sites on day 9 (d9 p.c.) was assessed as abortion.

The mark [3] stands for this setting: daily dose 0.5 mg/kg s.c. or p.o.
Setting [4] is: daily dose 1.5 mg/kg s.c. or p.o.
Where [5] appears, read: daily dose 5.0 mg/kg s.c. or p.o.

Usually IC50 stands for the concentration needed to halve the response being measured.

`C[S+]([O-])c1ccc([C@H]2C[C@@]3(C)[C@@H](CC[C@@]3(O)C(F)(F)C(F)(F)F)[C@@H]3CCC4=CC(=O)CCC4=C32)cc1` (mixture of isomers) [Example 3, (11β,17β)-17-Hydroxy-11-{4-[(RS)-methylsulphinyl]phenyl}-17-(pentafluoroethy)estra-4,9-dien-3-one]: in assay [1], the “Progesterone receptor A (PR-A) Efficacy” value amounted to 100%. Besides, the “Progesterone receptor B (PR-B) Efficacy” value in assay [2] is recorded as 100%.

For the molecule `CC(=O)c1ccc(C2CC3(C)C(CCC3(O)C(F)(F)C(F)(F)F)C3CCC4=CC(=O)CCC4=C23)cc1` (stereo not drawn) [11β-(4-Acetylphenyl)-20,20,21,21,21-pentafluoro-17-hydroxy-19-nor-17α-pregna-4,9-dien-3-one, reference compound], the IC50 in assay [1] worked out at 0.014 nM; in assay [2], 0.02 nM.

As to `CSc1ccc([C@H]2C[C@@]3(C)[C@@H](CC[C@@]3(O)C(F)(F)C(F)(F)F)[C@@H]3CCC4=CC(=O)CCC4=C32)cc1` [Example 1, (11β,17β)-17-hydroxy-11-[4-(methylsulphanyl)phenyl]-17-(pentafluoroethyl)estra-4,9-dien-3-one], in assay [1], the “Progesterone receptor A (PR-A) Efficacy” value is listed as 100%. In addition, the “Progesterone receptor B (PR-B) Efficacy” value in assay [2] came out at 100%. Besides, the Abortion rate with pregnant rats (setting [3]) is given as 80%; with pregnant rats (setting [4]), 100%; with pregnant rats (setting [5]), 100%.

For `CCSc1ccc([C@H]2C[C@@]3(C)C(CC[C@@]3(O)C(F)(F)C(F)(F)F)C3CCC4=CC(=O)CCC4=C32)cc1` (stereo partly drawn) [Example 2, (11β,17β)-11-[4-(ethylsulphanyl)phenyl]-17-hydroxy-17-(pentafluoroethyl)estra-4,9-dien-3-one], the IC50 in assay [1] is 0.01 nM.

Take `C[C@]12C[C@H](c3ccc(S(C)(=N)=O)cc3)C3=C4CCC(=O)C=C4CCC3C1CC[C@@]2(O)C(F)(F)C(F)(F)F` (stereo partly drawn) [Example 8, (11β,17β)-17-Hydroxy-11-[4-(RS-methylsulphonimidoyl)phenyl]-17-(pentafluoroethyl)estra-4,9-dien-3-one]: the “Progesterone receptor A (PR-A) Efficacy” value in assay [1] is on record as 100%. Also, the “Progesterone receptor B (PR-B) Efficacy” value in assay [2] is on record as 100%. In addition, the Abortion rate is recorded as 40% with pregnant rats (daily dose 0.15 mg/kg s.c. or p.o.), 100% in the assay with pregnant rats (setting [3]), 100% in the assay on pregnant rats (setting [4]) and 100% in the assay with pregnant rats (setting [5]).

For the molecule `CSc1ccc(-c2ccc([C@H]3C[C@@]4(C)[C@@H](CC[C@@]4(O)C(F)(F)C(F)(F)F)[C@@H]4CCC5=CC(=O)CCC5=C43)cc2)cc1` [Example 9, (11β,17β)-17-Hydroxy-11-[4′-(methylsulphanyl)biphenyl-4-yl]-17-(pentafluoroethy)estra-4,9-dien-3-one], the IC50 in assay [1] and in assay [2] was 0.01 nM in each case.

Regarding `CN(C)S(=O)(=O)c1ccc(-c2ccc([C@H]3C[C@@]4(C)[C@@H](CC[C@@]4(O)C(F)(F)C(F)(F)F)[C@@H]4CCC5=CC(=O)CCC5=C43)cc2)cc1` [Example 14, 4′-[(11β,17β)-17-hydroxy-3-oxo-17-(pentafluoroethyl)estra-4,9-dien-11-yl]-N,N-dimethylbiphenyl-4-sulphonamide], the IC50 in assay [1] was determined as 0.01 nM.

With `CN(C)S(=O)(=O)c1ccc([C@H]2C[C@@]3(C)[C@@H](CC[C@@]3(O)C(F)(F)C(F)(F)F)[C@@H]3CCC4=CC(=O)CCC4=C32)cc1` [Example 15, 4-[(11β,17β)-17-Hydroxy-3-oxo-17-(pentafluoroethy)estra-4,9-dien-11-yl]-N,N-dimethylbenzene Sulphonamide], the IC50 stood at 0.1 nM in assay [1] and 0.2 nM in assay [2].

(Values after patent US10155004B2, “17-hydroxy-17-pentafluoroethyl-estra-4,9(10)-dien-11-aryl derivatives, method of production thereof and use thereof for the treatment of diseases” (BAYER INTELLECTUAL PROPERTY GMBH, priority 2009, dated 2018).)
